{"source": "patent US12162888B2", "about": "“Carboxamides as ubiquitin-specific protease inhibitors” (Valo Early Discovery, Inc., priority 2018, dated 2024)", "data": [{"biological_target": "T1, USP28 (His-tagged USP28-FL-mammalian) (Homo sapiens, UniProt Q96RU2)", "T1 construct": "Expression of USP28 (1-1077)-TEV-6*His (pTT5 vector) was carried out in Expi293f cells; made in house; host or cells: Expi293F cells (pTT5 vector)", "T1 sequence (Q96RU2 1-1077)": "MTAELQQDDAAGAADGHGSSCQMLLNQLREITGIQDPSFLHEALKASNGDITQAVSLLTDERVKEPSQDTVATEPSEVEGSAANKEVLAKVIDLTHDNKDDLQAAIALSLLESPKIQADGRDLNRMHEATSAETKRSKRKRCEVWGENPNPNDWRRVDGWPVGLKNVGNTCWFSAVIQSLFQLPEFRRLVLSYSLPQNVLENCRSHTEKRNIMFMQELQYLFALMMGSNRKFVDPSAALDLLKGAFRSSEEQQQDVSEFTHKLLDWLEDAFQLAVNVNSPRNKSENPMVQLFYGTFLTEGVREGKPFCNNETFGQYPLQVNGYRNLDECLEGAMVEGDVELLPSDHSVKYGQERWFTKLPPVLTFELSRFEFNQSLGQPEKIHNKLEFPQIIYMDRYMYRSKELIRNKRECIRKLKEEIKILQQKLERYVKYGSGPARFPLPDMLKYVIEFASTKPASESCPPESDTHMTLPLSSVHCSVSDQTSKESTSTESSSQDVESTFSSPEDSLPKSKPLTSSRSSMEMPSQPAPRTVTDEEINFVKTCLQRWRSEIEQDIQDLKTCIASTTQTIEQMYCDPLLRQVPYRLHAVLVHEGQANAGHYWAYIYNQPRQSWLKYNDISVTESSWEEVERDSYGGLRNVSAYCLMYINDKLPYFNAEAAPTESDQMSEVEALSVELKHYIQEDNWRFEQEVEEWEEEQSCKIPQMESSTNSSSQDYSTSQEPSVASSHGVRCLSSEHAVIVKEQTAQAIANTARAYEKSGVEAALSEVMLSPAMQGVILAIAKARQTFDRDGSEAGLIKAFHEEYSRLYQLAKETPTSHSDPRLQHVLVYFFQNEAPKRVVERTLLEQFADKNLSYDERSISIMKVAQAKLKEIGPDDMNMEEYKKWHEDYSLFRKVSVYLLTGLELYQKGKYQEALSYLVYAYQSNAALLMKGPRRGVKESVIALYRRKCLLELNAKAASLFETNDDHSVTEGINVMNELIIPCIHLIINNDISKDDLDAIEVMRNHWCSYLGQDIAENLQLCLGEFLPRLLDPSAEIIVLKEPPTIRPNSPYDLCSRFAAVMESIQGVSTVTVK", "test": "Ubiquitin-Rhodamine 110 Assay for USP28 Activity, Example A-1(a)", "assay_type": "biochemical", "conditions": "Ubiquitin-Rhodamine 110 assay, read-out: USP28 A-1(a) IC50 range", "method_in_brief": "(§1)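 IC50s were fitted with a 4-parameter logistic to percent inhibition relative to no-enzyme and DMSO controls, using Rhodamine 110 fluorescence (485/535 nm) released from 25 nM Ub-Rh110. The enzyme was Expi293F-expressed USP28-FL-His at […], preincubated 30 min with compound (10-point, 25 μM top) in Tris pH 8.0 buffer containing BGG and Triton X-100. Substrate turnover ran 45 min at room temperature and was stopped with 10 mM citric acid.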", "units": {"IC50": "nM"}, "values": [{"smiles": "Cc1ccc2c(N)c(C(=O)N[C@H]3CCc4nc(N5CC6CC(C5)N6)ccc4C3)sc2n1", "note": "[Example 23-10, 3-amino-N-[(6S)-2-{3,6-diazabicyclo[3.1.1]heptan-3-yl}-5,6,7,8-tetrahydroquinolin-6-yl]-6-methylthieno[2,3-b]pyridine-2-carboxamide]", "IC50": "50 to 200"}, {"smiles": "Cc1ccc2c(N)c(C(=O)N[C@H]3COc4cc(N5CC[C@@]6(C5)OCC[C@H]6N)ccc4C3)sc2n1", "note": "[Example 409, 3-amino-N-[(3R)-7-[(4R,5S)-4-amino-1-oxa-7-azaspiro[4.4]nonan-7-yl]-3,4-dihydro-2H-1-benzopyran-3-yl]-6-methylthieno[2,3-b]pyridine-2-carboxamide]", "IC50": "1 to 50"}, {"smiles": "CO[C@]1(C)CN(c2ccc3c(c2)OC[C@H](NC(=O)c2sc4nc(C)ccc4c2N)C3)C[C@H]1N", "note": "[Example 282, 3-amino-N-[(3R)-7-[(3R,4R)-4-amino-3-methoxy-3-methylpyrrolidin-1-yl]-3,4-dihydro-2H-1-benzopyran-3-yl]-6-methylthieno[2,3-b]pyridine-2-carboxamide]", "IC50": "200 to 2000"}]}, {"biological_target": "T1, USP28 (His-tagged USP28-FL-mammalian)", "test": "Ubiquitin-Rhodamine 110 Assay for USP28 Activity, Example A-1(a)", "assay_type": "biochemical", "conditions": "Ubiquitin-Rhodamine 110 biochemical assay, read-out: USP28 A-1(a) IC50 range", "method_in_brief": "as §1", "units": {"IC50": "nM"}, "values": [{"smiles": "CO[C@@H]1CCCN(c2ccc3c(n2)CC[C@H](NC(=O)c2sc4nc(C)ccc4c2N)C3)C[C@@H]1N", "note": "[Example 495, 3-amino-N-[(6S)-2-[(3S,4R)-3-amino-4-methoxyazepan-1-yl]-5,6,7,8-tetrahydroquinolin-6-yl]-6-methylthieno[2,3-b]pyridine-2-carboxamide]", "IC50": "50 to 200"}, {"smiles": "Cc1cnc2c(N)c(C(=O)N[C@H]3CCc4nc(N5C[C@H](N)C6(C5)OCCO6)ccc4C3)sc2n1", "note": "[Example 498, 7-amino-N-[(6S)-2-[(9S)-9-amino-1,4-dioxa-7-azaspiro[4.4]nonan-7-yl]-5,6,7,8-tetrahydroquinolin-6-yl]-3-methylthieno[2,3-b]pyrazine-6-carboxamide]", "IC50": "200 to 2000"}, {"smiles": "CO[C@H]1CN(c2ccc3c(n2)CC[C@H](NC(=O)c2sc4nc(C)cnc4c2N)C3)C[C@H]1N", "note": "[Example 492, 7-amino-N-[(6S)-2-[(3R,4S)-3-amino-4-methoxypyrrolidin-1-yl]-5,6,7,8-tetrahydroquinolin-6-yl]-3-methylthieno[2,3-b]pyrazine-6-carboxamide]", "IC50": "50 to 200"}, {"smiles": "CN[C@@H]1CN(c2ccc3c(n2)CC[C@H](NC(=O)c2sc4nc(C)ccc4c2N)C3)C[C@@H]1COC", "note": "[Example 489, 3-amino-N-[(6S)-2-[(3S,4S)-3-(methoxymethyl)-4-(methylamino)pyrrolidin-1-yl]-5,6,7,8-tetrahydroquinolin-6-yl]-6-methylthieno[2,3-b]pyridine-2-carboxamide]", "IC50": "50 to 200"}, {"smiles": "CO[C@@H](C)CO[C@H]1CN(c2ccc3c(n2)CC[C@H](NC(=O)c2sc4nc(C)ccc4c2N)C3)C[C@@H]1N", "note": "[Example 481, 3-amino-N-[(6S)-2-[(3S,4S)-3-amino-4-[(2S)-2-methoxypropoxy]pyrrolidin-1-yl]-5,6,7,8-tetrahydroquinolin-6-yl]-6-methylthieno[2,3-b]pyridine-2-carboxamide]", "IC50": "50 to 200"}, {"smiles": "Cc1ccc2c(N)c(C(=O)N[C@H]3CCc4nc(N5C[C@H](N)[C@@]6(C5)OCC[C@@H]6C)ccc4C3)sc2n1", "note": "[Example 509, 3-amino-N-[(6S)-2-[(4S,5R,9S)-9-amino-4-methyl-1-oxa-7-azaspiro[4.4]nonan-7-yl]-5,6,7,8-tetrahydroquinolin-6-yl]-6-methylthieno[2,3-b]pyridine-2-carboxamide]", "IC50": "50 to 200"}, {"smiles": "CN[C@@H]1CN(c2ccc3c(n2)CC[C@H](NC(=O)c2sc4nc(C)cnc4c2N)C3)C[C@@H]1OC", "note": "[Example 497, 7-amino-N-[(6S)-2-[(3S,4R)-3-methoxy-4-(methylamino)pyrrolidin-1-yl]-5,6,7,8-tetrahydroquinolin-6-yl]-3-methylthieno[2,3-b]pyrazine-6-carboxamide]", "IC50": "200 to 2000"}, {"smiles": "Cc1ccc2c(N)c(C(=O)N[C@H]3CCc4nc(N5C[C@H](COC(F)(F)F)[C@H](N)C5)ccc4C3)sc2n1", "note": "[Example 485, 3-amino-N-[(6S)-2-[(3S,4S)-3-amino-4-[(trifluoromethoxy)methyl]pyrrolidin-1-yl]-5,6,7,8-tetrahydroquinolin-6-yl]-6-methylthieno[2,3-b]pyridine-2-carboxamide]", "IC50": "50 to 200"}, {"smiles": "Cc1ccc2c(N)c(C(=O)N[C@H]3CCc4nc(N5C[C@@H](N)[C@]6(C5)OCC[C@@H]6C)ccc4C3)sc2n1", "note": "[Example 511, 3-amino-N-[(6S)-2-[(4S,5S,9R)-9-amino-4-methyl-1-oxa-7-azaspiro[4.4]nonan-7-yl]-5,6,7,8-tetrahydroquinolin-6-yl]-6-methylthieno[2,3-b]pyridine-2-carboxamide]", "IC50": "200 to 2000"}]}, {"biological_target": "T1, USP28 (His-tagged USP28-FL-mammalian)", "test": "Ubiquitin-Rhodamine 110 Assay for USP28 Activity, Example A-1(a)", "assay_type": "biochemical", "conditions": "biochemical IC50 range, Ubiquitin-Rhodamine 110 assay, read-out: USP28 A-1(a)", "method_in_brief": "as §1", "units": {"IC50": "nM"}, "values": [{"smiles": "CN[C@@H]1CN(c2ccc3c(c2)OC[C@H](NC(=O)c2sc4nc(C)ccc4c2N)C3)C[C@@H]1COC", "note": "[Example 680, 3-amino-N-[(3R)-7-[(3S,4S)-3-(methoxymethyl)-4-(methylamino)pyrrolidin-1-yl]-3,4-dihydro-2H-1-benzopyran-3-yl]-6-methylthieno[2,3-b]pyridine-2-carboxamide]", "IC50": "1 to 50"}, {"smiles": "CO[C@@H]1CCCN(c2cc(F)c3c(c2)OC[C@H](NC(=O)c2sc4nc(C)ccc4c2N)C3)C[C@H]1N", "note": "[Example 689, 3-amino-N-[(3R)-7-[(3R,4R)-3-amino-4-methoxyazepan-1-yl]-5-fluoro-3,4-dihydro-2H-1-benzopyran-3-yl]-6-methylthieno[2,3-b]pyridine-2-carboxamide]", "IC50": "1 to 50"}, {"smiles": "CO[C@]12CCN[C@H]1CN(c1ccc3c(c1)OC[C@H](NC(=O)c1sc4nc(C)ccc4c1N)C3)C2", "note": "[Example 666, N-[(3R)-7-[(3aS,6aS)-3a-methoxyoctahydropyrrolo[2,3-c]pyrrol-5-yl}-3,4-dihydro-2H-1-benzopyran-3-yl]-3-amino-6-methylthicno[2,3-b]pyridine-2-carboxamide]", "IC50": "1 to 50"}, {"smiles": "Cc1ccc2c(N)c(C(=O)N[C@H]3COc4cc(N5C[C@@H](N)[C@]6(CCCCO6)C5)ccc4C3)sc2n1", "note": "[Example 611-2, 3-amino-N-[(3R)-7-[(4R,5S)-4-amino-6-oxa-2-azaspiro[4.5]decan-2-yl]-3,4-dihydro-2H-1-benzopyran-3-yl]-6-methylthieno[2,3-b]pyridine-2-carboxamide]", "IC50": "1 to 50"}, {"smiles": "CNc1ncc(C(=O)N[C@H]2COc3cc(N4CCNCC4)ccc3C2)c2c1CCCN2", "note": "[Example 677, 5-(methylamino)-N-[(3R)-7-(piperazin-1-yl)-3,4-dihydro-2H-1-benzopyran-3-yl]-1,2,3,4-tetrahydro-1,6-naphthyridine-8-carboxamide]", "IC50": "200 to 2000"}, {"smiles": "Cc1ccc2c(N)c(C(=O)N[C@H]3COc4cc(OC[C@@H]5CNCC5(F)F)ccc4C3)sc2n1", "note": "[Example 685, 3-amino-N-[(3R)-7-{[(3S)-4,4-difluoropyrrolidin-3-yl]methoxy}-3,4-dihydro-2H-1-benzopyran-3-yl]-6-methylthieno[2,3-b]pyridine-2-carboxamide]", "IC50": "1 to 50"}]}]}
